# pEC50, pKi: −log10 of the molar value.
# Legend:
# [1] = system: breast cancer cell line MX-1; test: MX-1 cell line proliferation assay; type: cell-based, human; settings: Homo sapiens, MX1, 72 h; MX-1 cells, 3-day proliferation, Cell Titer Glo; read-out: Cellular proliferation: EC50
# [2] = Human liver microsome stability assay; type: in vitro ADME; settings: both sexes, human, microsomes, pH 7.4
# [3] = molecular target: human BRD4 second bromodomain (BDII_E352-M457) (Homo sapiens (Human), UniProt O60885); test: TR-FRET bromodomain binding assay, BRD4 second bromodomain
# [4] = Rat liver microsome stability assay; type: in vitro ADME; settings: rat liver microsomes (male Sprague-Dawley), 0.5 μM test compound, pH 7.4, 37° C.; for half-life at 0.5 μM: 0.25 mg/mL microsomal protein, read-out: Stability in rat liver microsomes (t1/2 in minutes); for Stability in rat liver microsomes (t1/2 in minutes): […] microsomal protein
# [5] = Mouse liver microsome stability assay; type: in vitro ADME; settings: male, CD1, mouse, microsomes, pH 7.4
# [6] = molecular target: human BRD4 first bromodomain (BDI_K57-E168) (Homo sapiens (Human), UniProt O60885); test: TR-FRET bromodomain binding assay, BRD4 first bromodomain
Compound,pEC50 [1],half-life at 0.5 μM [2],pKi [3],half-life at 0.5 μM [4],half-life at 0.5 μM [5],pKi [6],Stability in rat liver microsomes (t1/2 in minutes) [4]
"Cn1cc(-c2cc(C(N)=O)ccc2Oc2ccc(F)cc2F)c2cc[nH]c2c1=O [Example 50, 4-(2,4-difluorophenoxy)-3-(6-methyl-7-oxo-6,7-dihydro-1H-pyrrolo[2,3-c]pyridin-4-yl)benzamide]",6.69,35 min,8.09,88 min,46 min,7.67,
"Cn1cc(-c2cc(C(=O)NC3CCOC3)ccc2Oc2ccc(F)cc2F)c2cc[nH]c2c1=O (stereo not drawn) [Example 51, 4-(2,4-difluorophenoxy)-3-(6-methyl-7-oxo-6,7-dihydro-1H-pyrrolo[2,3-c]pyridin-4-yl)-N-(tetrahydrofuran-3-yl)benzamide]",7.00,6 min,7.79,63 min,> 120 min,8.01,
"Cn1cc(-c2cc(C(=O)N3CCC(NC(=O)OC(C)(C)C)C3)ccc2Oc2ccc(F)cc2F)c2cc[nH]c2c1=O (stereo not drawn) [Example 54, tert-butyl {1-[4-(2,4-difluorophenoxy)-3-(6-methyl-7-oxo-6,7-dihydro-1H-pyrrolo[2,3-c]pyridin-4-yl)benzoyl]pyrrolidin-3-yl}carbamate]",6.58,3 min,7.43,30 min,2 min,7.02,
"Cn1cc(-c2cc(NS(C)(=O)=O)ccc2OC2CCCCC2)c2cc[nH]c2c1=O [Example 57, N-[4-(cyclohexyloxy)-3-(6-methyl-7-oxo-6,7-dihydro-1H-pyrrolo[2,3-c]pyridin-4-yl)phenyl]methanesulfonamide]",7.86,13 min,8.70,6 min,5 min,9.06,
"Cn1cc(-c2cc(NS(C)(=O)=O)ccc2OC2CCCC2)c2cc[nH]c2c1=O [Example 58, N-[4-(cyclopentyloxy)-3-(6-methyl-7-oxo-6,7-dihydro-1H-pyrrolo[2,3-c]pyridin-4-yl)phenyl]methanesulfonamide]",7.35,> 120 min,8.09,,4 min,8.68,1 min
"Cn1cc(-c2cc(NS(C)(=O)=O)ccc2OC2CCCOC2)c2cc[nH]c2c1=O (stereo not drawn) [Example 60, N-[3-(6-methyl-7-oxo-6,7-dihydro-1H-pyrrolo[2,3-c]pyridin-4-yl)-4-(tetrahydro-2H-pyran-3-yloxy)phenyl]methanesulfonamide]",7.85,68 min,8.18,64 min,34 min,9.12,
"Cn1cc(-c2cc(NS(C)(=O)=O)ccc2OCc2ccccc2)c2cc[nH]c2c1=O [Example 63, N-[4-(benzyloxy)-3-(6-methyl-7-oxo-6,7-dihydro-1H-pyrrolo[2,3-c]pyridin-4-yl)phenyl]methanesulfonamide]",6.98,39 min,7.37,13 min,18 min,7.74,
"COC(=O)c1cc2c(-c3ccccc3Oc3ccccc3)cn(C)c(=O)c2[nH]1 [Example 67, methyl 6-methyl-7-oxo-4-(2-phenoxyphenyl)-6,7-dihydro-1H-pyrrolo[2,3-c]pyridine-2-carboxylate]",6.47,6 min,7.03,5 min,6 min,7.25,
"CCOC(=O)c1cc2c(-c3cc(N)ccc3Oc3ccccc3)cn(C)c(=O)c2[nH]1 [Example 69, ethyl 4-(5-amino-2-phenoxyphenyl)-6-methyl-7-oxo-6,7-dihydro-1H-pyrrolo[2,3-c]pyridine-2-carboxylate]",6.85,6 min,7.91,2 min,3 min,7.41,
"Cn1cc(-c2cc(NS(C)(=O)=O)ccc2Oc2ccccc2)c2cc(C(=O)O)[nH]c2c1=O [Example 70, 6-methyl-4-{5-[(methylsulfonyl)amino]-2-phenoxyphenyl}-7-oxo-6,7-dihydro-1H-pyrrolo[2,3-c]pyridine-2-carboxylic acid]",< 5.52,41 min,7.33,9 min,68 min,7.93,
"CCOC(=O)c1cc2c(-c3cc(NS(C)(=O)=O)ccc3Oc3ccccc3)cn(C)c(=O)c2[nH]1 [Example 71, ethyl 6-methyl-4-{5-[(methylsulfonyl)amino]-2-phenoxyphenyl}-7-oxo-6,7-dihydro-1H-pyrrolo[2,3-c]pyridine-2-carboxylate]",7.76,2 min,8.92,,6 min,9.09,1 min
"CCNC(=O)c1cc2c(-c3cc(NS(C)(=O)=O)ccc3Oc3ccccc3)cn(C)c(=O)c2[nH]1 [Example 72, N-ethyl-6-methyl-4-{5-[(methylsulfonyl)amino]-2-phenoxyphenyl}-7-oxo-6,7-dihydro-1H-pyrrolo[2,3-c]pyridine-2-carboxamide]",7.34,34 min,8.96,,70 min,8.82,1 min

# Results, then the compound that gave them:
pEC50 [1],half-life at 0.5 μM [2],pKi [3],half-life at 0.5 μM [4],half-life at 0.5 μM [5],pKi [6],Stability in rat liver microsomes (t1/2 in minutes) [4],Compound
7.68,36 min,9.30,2 min,31 min,9.01,,"Cn1cc(-c2cc(NS(C)(=O)=O)ccc2Oc2ccccc2)c2cc(C(N)=O)[nH]c2c1=O [Example 73, 6-methyl-4-{5-[(methylsulfonyl)amino]-2-phenoxyphenyl}-7-oxo-6,7-dihydro-1H-pyrrolo[2,3-c]pyridine-2-carboxamide]"
6.12,19 min,6.74,2 min,2 min,6.28,,"Cn1nc(-c2ccccc2Oc2ccccc2)c2cc[nH]c2c1=O [Example 82, 6-methyl-4-(2-phenoxyphenyl)-1,6-dihydro-7H-pyrrolo[2,3-d]pyridazin-7-one]"
6.62,17 min,7.06,7 min,7 min,7.91,,"Cn1cc(-c2cc(NS(=O)(=O)CCF)ccc2OC2CCOC2)c2cc[nH]c2c1=O (stereo not drawn) [Example 91, 2-fluoro-N-[3-(6-methyl-7-oxo-6,7-dihydro-1H-pyrrolo[2,3-c]pyridin-4-yl)-4-(tetrahydrofuran-3-yloxy)phenyl]ethanesulfonamide]"
6.92,54 min,7.49,102 min,25 min,8.12,,"CCCS(=O)(=O)Nc1ccc(Oc2ccc(C#N)cc2)c(-c2cn(C)c(=O)c3[nH]ccc23)c1 [Example 93, N-[4-(4-cyanophenoxy)-3-(6-methyl-7-oxo-6,7-dihydro-1H-pyrrolo[2,3-c]pyridin-4-yl)phenyl]propane-1-sulfonamide]"
6.96,47 min,8.00,28 min,25 min,7.79,,"CCCS(=O)(=O)Nc1ccc(Oc2c(F)cc(F)cc2F)c(-c2cn(C)c(=O)c3[nH]ccc23)c1 [Example 94, N-[3-(6-methyl-7-oxo-6,7-dihydro-1H-pyrrolo[2,3-c]pyridin-4-yl)-4-(2,4,6-trifluorophenoxy)phenyl]propane-1-sulfonamide]"
7.25,> 120 min,8.96,7 min,36 min,8.06,,"Cn1cc(-c2cc(S(N)(=O)=O)ccc2Oc2ccccc2)c2cc[nH]c2c1=O [Example 95, 3-(6-methyl-7-oxo-6,7-dihydro-1H-pyrrolo[2,3-c]pyridin-4-yl)-4-phenoxybenzenesulfonamide]"
7.80,24 min,8.96,13 min,33 min,9.20,,"Cn1cc(-c2cc(S(N)(=O)=O)cnc2NC2CCCCC2)c2cc[nH]c2c1=O [Example 96, 6-(cyclohexylamino)-5-(6-methyl-7-oxo-6,7-dihydro-1H-pyrrolo[2,3-c]pyridin-4-yl)pyridine-3-sulfonamide]"
7.28,26 min,8.57,33 min,10 min,8.19,,"CNS(=O)(=O)Nc1ccc(Oc2c(F)cc(F)cc2F)c(-c2cn(C)c(=O)c3[nH]ccc23)c1 [Example 98, N-methyl-N′-[3-(6-methyl-7-oxo-6,7-dihydro-1H-pyrrolo[2,3-c]pyridin-4-yl)-4-(2,4,6-trifluorophenoxy)phenyl]sulfuric diamide]"
7.01,> 120 min,7.61,22 min,35 min,8.46,,"CCCS(=O)(=O)Nc1ccc(OC2CCOCC2)c(-c2cn(C)c(=O)c3[nH]ccc23)c1 [Example 99, N-[3-(6-methyl-7-oxo-6,7-dihydro-1H-pyrrolo[2,3-c]pyridin-4-yl)-4-(tetrahydro-2H-pyran-4-yloxy)phenyl]propane-1-sulfonamide]"

# From US9296741B2, “Bromodomain inhibitors” (priority 2012, dated 2016)
